Experimental data: paper PMC6588697, “Lugdunin amplifies innate immune responses in the skin in synergy with host- and microbiota-derived factors” (Nature Communications, 2019)
Where “and” joins values, the source holds several entries; their conditions need not be identical. Identical values can stand only once.

Key:
HNEpCs = test: CXCL8 expression in HNEpCs (qRT-PCR); assay type: cell-based, human; settings: 5 h, two technical replicates
Protocol: Quantitative reverse transcription-polymerase chain reaction (qRT-PCR) was performed in 10 µL reaction volume with SYBR^TM Green PCR Master Mix (Thermo Fisher) according to the manufacturer’s instructions using a LightCycler 96 (Roche Life Science). The initial denaturation step was at 95 °C for 5 min, followed by 40 cycles with 10 s each for the denaturation step at 95 °C, the annealing at individual temperature, and the elongation at 72 °C. Primer sequences and respective annealing temperatures are listed in Supplementary Table 1. […]
31 g+h+i: HNEpCs (b), HTEpCs (c) or PBMCs (d) were treated with increasing
32 concentrations of lugdunin (grey bars) or 100 ng/mL Pam2Cys or Pam3Cys (white
33 bars) as positive controls for 5 hours and subsequently expression of CXCL8 was
34 analyzed and normalized to actin. Black bar: medium control. Shown is one
35 representative experiment of three independent experiments with two technical
36 replicates +/-s.e.m. Significant differences to control treatments were analyzed by
37 ordinary one-way ANOVA followed by Dunnett’s multiple comparisons test (*P<0.05; […]

mouse skin = test: Immune cell composition of mouse skin after epicutaneous treatment (flow cytometry); assay type: in vivo, C57BL/6 WT, MyD88-ko, 5xTLR-ko mice; settings: for percentage of monocytes (Ly6C+Ly6G−) of CD11b+CD45+ live cells / percentage of neutrophils (Ly6C+Ly6G+) of CD11b+CD45+ live cells: Fig 3d
Protocol: Fig. 3 Epicutaneous lugdunin recruits phagocytic cells. a Schematic overview of the mouse experiments: 6–8-week-old female C5BL/6 wild-type (WT), MyD88-ko, or 5xTLR-ko mice were epicutaneously treated with 1.5 µg lugdunin or phosphate-buffered saline (PBS) as a control. After 24 h, mice were euthanized, immune cells were isolated from treated skin areas, and immune cell composition was analyzed by flow cytometry. b Shown is the mean percentage of CD45+ live cells in mouse skin of 10 C57BL/6 WT mice ± s.e.m. One mouse is represented as two dots analyzed by two different stainings. c Pie charts show the mean percentage of the different immune cell subsets in the skin of 10 WT mice after 24 h of PBS or lugdunin treatment. d Shown are representative flow cytometry data (left panel) and the mean percentage of neutrophils (Ly6C+Ly6G+) and monocytes (Ly6C+Ly6G−) pregated on CD11b+CD45+ live cells (see Supplementary Fig. 3a, f for the gating strategy) in mouse skin ± s.e.m. One dot represents one mouse. *P < 0.05. e Representative myeloperoxidase (MPO)-stained paraffin-embedded mouse skin sections. Scale bar, 100 µM. Source data are provided as a Source Data file TEXT PRINTED IN THE PICTURE: (c) PBS: NK cells: 21%; B cells: 0%; T cells: 10%; Dendritic cells: 8%; CD11b+ cells: 43%; Others: 18%; Macrophages: 73%; Monocytes: 15%; Neutrophils: 3%; Others: 9% | (c) Lugdunin: NK cells: 18%; B cells: 0%; T cells: 11%; Dendritic cells: 10%; CD11b+ cells: 45%; Others: 16%; Macrophages: 64%; Monocytes: 21%; Neutrophils: 6%; Others: 9% | (d) PBS: Monocytes 13,3 (WT); Neutrophils 2,51 (WT); Q4 83,6 (WT); Q3 0,53 (WT); Monocytes 2,34 (MyD88-ko); Neutrophils 0,95 (MyD88-ko); Q4 94,4 (MyD88-ko); Q3 2,27 (MyD88-ko); Monocytes 12,8 (5xTLR-ko); Neutrophils 0,88 (5xTLR-ko); Q4 85,0 (5xTLR-ko); Q3 1,32 (5xTLR-ko) | (d) Lugdunin: Monocytes 17,3 (WT); Neutrophils 11,1 (WT); Q4 70,6 (WT); Q3 0,99 (WT); Monocytes 3,14 (MyD88-ko); Neutrophils 0,54 (MyD88-ko); Q4 94,9 (MyD88-ko); Q3 1,41 (MyD88-ko); Monocytes 12,9 (5xTLR-ko); Neutrophils 1,74 (5xTLR-ko); Q4 84,3 (5xTLR-ko); Q3 1,06 (5xTLR-ko) DOUBTS OF THE COPYIST ABOUT THIS PICTURE: Panel c: the percentages are printed on the pie slices without cell-type names. They were matched to cell types only by the colour legend, so the match is not certain, especially among the blue shades of the lower pies. / PBS is the vehicle control, not a test substance. Its values are given because they are printed under that name. / Panel d: the quadrant numbers are in very small print, so 3, 5, 6, 8 and 9 cannot be told apart with certainty. / PBS WT, Monocytes 13,3: either 3 could be 8 / PBS WT, Neutrophils 2,51: 5 could be 6 / PBS WT, Q4 83,6: 8, 3 and 6 uncertain / PBS WT, Q3 0,53: 5 and 3 uncertain / PBS MyD88-ko, Monocytes 2,34: 3 could be 8 / PBS MyD88-ko, Neutrophils 0,95: 9 and 5 uncertain / PBS MyD88-ko, Q4 94,4: 9 uncertain / PBS 5xTLR-ko, Monocytes 12,8: 8 could be 3 / PBS 5xTLR-ko, Neutrophils 0,88: either 8 uncertain / PBS 5xTLR-ko, Q4 85,0: 8 and 5 uncertain / PBS 5xTLR-ko, Q3 1,32: 3 could be 8 / Lugdunin WT, Monocytes 17,3: 3 could be 8 / Lugdunin WT, Q4 70,6: 6 could be 8 / Lugdunin WT, Q3 0,99: either 9 uncertain / Lugdunin MyD88-ko, Monocytes 3,14: 3 could be 8 / Lugdunin MyD88-ko, Neutrophils 0,54: 5 could be 6 / Lugdunin MyD88-ko, Q4 94,9: either 9 uncertain / Lugdunin 5xTLR-ko, Monocytes 12,9: 9 could be 8 / Lugdunin 5xTLR-ko, Q4 84,3: 8 and 3 uncertain / Lugdunin 5xTLR-ko, Q3 1,06: 6 could be 8
To analyze the immune cell composition and cytokines in the skin, 15 µL containing 1.5 μg lugdunin or PBS as a control were epicutaneously applied for 24 h on the shaved back skin of C57BL/6 WT/MYD88-ko/5xTLR-ko mice. After 24 h, mice were euthanized and relevant skin areas or 4 mm skin punches were removed for immune cell analysis and LEGENDplex^TM (BioLegend) cytokine analysis. […]

[1] = 5xTLR-ko mice, 1.5 µg lugdunin 24 h, one value per mouse
[2] = MyD88-ko mice, 1.5 µg lugdunin 24 h, one value per mouse
[3] = WT mice, 1.5 µg lugdunin 24 h, one value per mouse

Lugdunin
CXCL8 fold induction (HNEpCs; lugdunin 0.5 µM, sheet Supp Fig 1f): 2.151 and 2.454
CXCL8 fold induction (HNEpCs; lugdunin 1 µM): 2.621
CXCL8 fold induction (HNEpCs; lugdunin 2 µM): 6.148 and 8.056
CXCL8 fold induction (HNEpCs; lugdunin 3 µM): 5.836 and 8.253
CXCL8 fold induction (HNEpCs; lugdunin 5 µM): 4.724 and 6.453
CXCL8 fold induction (HNEpCs; lugdunin 10 µM): 1.659 and 2.014
percentage of monocytes (Ly6C+Ly6G−) of CD11b+CD45+ live cells (mouse skin; [1]): completely impaired and 20.3% and 17.1% and 9.43% and 21.4% and 16.9% and 6.11% and 12.9%
percentage of neutrophils (Ly6C+Ly6G+) of CD11b+CD45+ live cells (mouse skin; [1]): completely impaired and 5.72% and 2.72% and 4.06% and 8.41% and 1.29% and 0.57% and 1.74%
percentage of CD45+ live cells in mouse skin (mouse skin; 10 WT mice, 1.5 µg lugdunin epicutaneous 24 h, each mouse two values (two stainings), Fig 3b): 14.9% and 13.5% and 14.7% and 11.7% and 14.6% and 11.5% and 13.9% and 11.3% and 13.1% and 10.2% and 12.2% and 10.7% and 12.3% and 10.1% and 6.9% and 8.55%
percentage of monocytes (Ly6C+Ly6G−) of CD11b+CD45+ live cells (mouse skin; [2]): completely impaired and 8.96% and 15.5% and 8.8% and 15.6% and 3.14% and 1.49% and 4.64% and 1.54%
percentage of neutrophils (Ly6C+Ly6G+) of CD11b+CD45+ live cells (mouse skin; [2]): completely impaired and 2.26% and 5.17% and 2.81% and 2.01% and 0.54% and 0.23% and 0.5% and 0.44%
percentage of monocytes (Ly6C+Ly6G−) of CD11b+CD45+ live cells (mouse skin; [3]): significantly enhanced recruitment and 15.8% and 17.3% and 13.3% and 8.16% and 21.5% and 17.9% and 10.5% and 16.5% and 16% and 7.28%
percentage of neutrophils (Ly6C+Ly6G+) of CD11b+CD45+ live cells (mouse skin; [3]): significantly enhanced recruitment and 2.57% and 6.43% and 4.87% and 2.11% and 8.34% and 11.1% and 2.51% and 1.25% and 4.02% and 5.05%
NK cells, % NK1.1+ cells of live CD45+ cells (mouse skin; WT mice, 1.5 µg lugdunin 24 h, one value per mouse, Supp Fig 3b): 17.7% and 16.5% and 19.9% and 14.6% and 15.5% and 15.6% and 22.8% and 24.4% and 19.7% and 17.2%
B cells, % CD19+ cells of live CD45+ cells (mouse skin; WT mice, 1.5 µg lugdunin 24 h, one value per mouse, Supp Fig 3c): 0% and 0.14% and 0.15% and 0.03% and 0.04% and 0.05% and 0.01% and 0.02%
Dendritic cells, % CD11c+ cells of live CD45+ cells (mouse skin; WT mice, 1.5 µg lugdunin 24 h, one value per mouse, Supp Fig 3e): 16.5% and 7.96% and 9.38% and 7.83% and 7.66% and 8.63% and 12.4% and 7.01% and 13.5% and 11.2%
CD11b+ cells, % of live CD45+ cells (mouse skin; WT mice, 1.5 µg lugdunin 24 h, one value per mouse, Supp Fig 3f): 25.3% and 49.5% and 44.6% and 53.3% and 45% and 48.5% and 39.3% and 50.8% and 43.6%
Macrophages, % F4/80+ cells of CD11b+ CD45+ live cells (mouse skin; WT mice, 1.5 µg lugdunin 24 h, one value per mouse, Supp Fig 3g): slightly reduced and 61.4% and 62.3% and 69.6% and 70.5% and 63.1% and 61.1% and 64.2% and 53.1% and 77.9%
T cells, % CD3+ cells of live CD45+ cells (mouse skin; WT mice, 1.5 µg lugdunin 24 h, one value per mouse, Supp Fig 3d): 14.9% and 10.6% and 8% and 7.67% and 10.1% and 12.6% and 9.79% and 11.5% and 8.32% and 13.4%
